Assay results taken from patent US8912179B2, “Heterocyclyl compounds as histamine H3 receptor ligands” (Suven Life Sciences Limited, priority 2010, dated 2014).

Assays:
Histamine H3 receptor = Histamine H3 receptor (UniProt Q9Y5N1); assay: Binding assay for human or rat histamine H3 receptor ([3H] R-α-methylhistamine); conditions: [3H] R-α-methylhistamine 3.0 nM; rat brain frontal cortex or recombinant human receptor in CHO cells (not specified which)
Procedure: Compounds can be evaluated according to the following procedures.
• Receptor source: Rat brain frontal cortex or recombinant human cDNA expressed in CHO cells • Radioligand: [^3H] R-α-methylhistamine • Final ligand concentration—[3.0 nM] • Non-specific determinant: R-α-methylhistamine (100 uM) • Reference compound: R-α-methylhistamine • Positive control: R-α-methylhistamine Incubation Conditions:
Increasing concentrations of test compounds or standard were incubated with membrane receptors and radioligand in 5 mM MgCl2 and 50 mM TRIS-HCl (pH 7.4) for 60 minutes at room temperature. The reaction was terminated by rapid vacuum filtration onto the glass fiber filters. Radioactivity trapped onto the filters was determined and compared to the control values in order to ascertain any interactions of the test compound(s) with either cloned human or rat receptor binding site.

[1] = Rodent pharmacokinetic study; format: in vivo, Male Wistar rats; conditions: whole blood, Wistar male rat; for AUC(0-t) / Cmax / Tmax / half-life: water, blood; for bioavailability: per oral 3 mg/kg vs intravenous 1 mg/kg
Procedure: Male Wistar rats (230-280 grams) obtained from NIN (National Institute of Nutrition, Hyderabad, India) were used as an experimental animal. Three animals were housed in each cage. Animals were kept fasted over night and maintained on a 12 hours light/dark cycle. Three rats were dosed New chemical entity (NCE) orally (3 or 10 mg/kg) and intravenously (1 or 5 mg/kg) on day 0 and day 2.
At each time point blood was collected by jugular vein. Blood was stored at 2-8° C. until analysis. The concentrations of the NCE compound in blood were determined using LC-MS/MS method. Schedule time points: Pre dose 0.08, 0.25, 0.5, 1, 2, 4, 6, 8 and 24 hours after dosing (n=3). The NCE compounds were quantified in blood by partially validated LC-MS/MS method using acetonitrile precipitation technique. NCE compounds were quantified in the calibration range of 1-2000 ng/mL in blood. Study samples were analyzed using calibration samples in the batch and quality control samples spread across the batch.
Pharmacokinetic parameters were calculated by non-compartmental model using software WinNonlin version 5.0.1.

[2] = Rodent brain penetration study; format: in vivo, Male Wister rats; conditions: brain / whole blood; Wistar male rat; one value per compound, table lists intravenous 1 mg/kg and per oral 3 mg/kg, water; read-out: Brain Penetration Ratio (Cb/Cp)
Procedure: Male Wister rats (230-280 grams) obtained from NIN (National Institute of Nutrition, Hyderabad, India) was used as experimental animals. Three animals were housed in each cage. Animals were given water and food ad libitum throughout the experiment, and maintained on a 12 hours light/dark cycle.
New chemical entity (NCE) was dissolved in suitable vehicle and administered orally (3 or 10 mg/kg). Around Tmax (i.e, 0.5 hour, 1.0 hour and 2.0 hours) animals were sacrificed. Blood and brain tissue were collected and brain was homogenized to yield 20% w/v. Blood was stored at 2-8° C. and brain homogenate was frozen at −20° C. until analysis. The concentrations of NCE in blood and brain were quantified using LC-MS/MS method.
The NCE was quantified in blood and brain homogenate by partially validated LC-MS/MS method using acetonitrile precipitation technique. NCE compounds were quantified in the calibration range of 1-500 ng/mL in blood and brain homogenate. Study samples were analyzed using calibration samples in the batch and quality control samples spread across the batch. Extents of brain-blood ratio were calculated (Cb/Cp).

Male Wister rats = assay: Object recognition task model; format: in vivo, rat; conditions: for Exploration time mean ± S.E.M, Familiar object / Exploration time mean ± S.E.M, Novel object: choice trial T2, 24 hours after T1
Procedure: The cognition enhancing properties of compounds of this invention were estimated by using this model.
Male Wister rats (230-280 grams) obtained from N. I. N. (National Institute of Nutrition, Hyderabad, India) was used as experimental animals. Four animals were housed in each cage. Animals were kept on 20% food deprivation before one day and given water ad libitum throughout the experiment and maintained on a 12 hours light/dark cycle. Also the rats were habituated to individual arenas for 1 hour in the absence of any objects.
One group of 12 rats received vehicle (1 mL/Kg) orally and another set of animals received compound of the formula (I) either orally or i.p., before one hour of the familiar (T1) and choice trial (T2).
The experiment was carried out in a 50×50×50 cm open field made up of acrylic. In the familiarization phase, (T1), the rats were placed individually in the open field for 3 minutes, in which two identical objects (plastic bottles, 12.5 cm height×5.5 cm diameter) covered in yellow masking tape alone (a1 and a2) were positioned in two adjacent corners, 10 cms from the walls. After 24 hours of the (T1) trial for long-term memory test, the same rats were placed in the same arena as they were placed in T1 trial. Choice phase (T2) rats were allowed to explore the open field for 3 minutes in presence of one familiar object (a3) and one novel object (b) (Amber color glass bottle, 12 cm high and 5 cm in diameter). Familiar objects presented similar textures, colors and sizes. During the T1 and T2 trial, explorations of each object (defined as sniffing, licking, chewing or having moving vibrissae whilst directing the nose towards the object at a distance of less than 1 cm) were recorded separately by stopwatch. Sitting on an object was not regarded as exploratory activity, however, it was rarely observed. • T1 is the total time spent exploring the familiar objects (a1+a2). • T2 is the total time spent exploring the familiar object and novel object (a3+b).
The object recognition test was performed as described by Ennaceur, A., Delacour, J., 1988, A new one-trial test for neurobiological studies of memory in rats—Behavioural data, Behav. Brain Res., 31, 47-59.

rats [3] = assay: Morris water maze, reversal of scopolamine induced amnesia; format: in vivo, rat; conditions: p.o., dose giving reversal
Procedure: The cognition-enhancing properties of compounds of this invention were estimated by using this model.
The water maze apparatus consisted of a circular pool (1.8 m diameter, 0.6 m high) constructed in black Perspex (TSE systems, Germany) filled with water (24±2° C.) and positioned underneath a wide-angled video camera to track animal. The 10 cm^2 perspex platform, lying 1 cm below the water surface, was placed in the centre of one of the four imaginary quadrants, which remained constant for all rats. The black Perspex used in the construction of the maze and platform offered no intramaze cues to guide escape behavior. By contrast, the training room offered several strong extramaze visual cues to aid the formation of the spatial map necessary for escape learning. An automated tracking system, [Videomot 2 (5.51), TSE systems, Germany] was employed. This program analyzes video images acquired via a digital camera and an image acquisition boards that determined path length, swim speed and the number of entries and duration of swim time spent in each quadrant of the water maze.

rats [4] = assay: Inhibition of food intake; format: in vivo, rat; conditions: p.o., rats fasted 18 hours
Procedure: The anti-obesity properties of compounds of this invention were estimated using this model
The experiment consisted of 6 days. The rats were adapted to the 18 hours fasting and 6 hours feeding pattern. The animals were housed in a group of three in the cages provided with the fasting grills and was fasted for 18 hours. After 18 hours fasting the rats were separated and placed individually in the cage. Weighed amount of feed was provided to rats for 6 hours and the feed intake at 1 hour, 2 hours, 4 hours and 6 hours was measured
Again the rats were regrouped and fasted for 18 hours. The above procedure was followed for 5 days. The average cumulative food intake by the rats on the last 3 days was calculated. Animals were randomized on the basis of their previous three days food intake. On the day of experiment the rats were orally treated test compounds or vehicle. After 60 minutes, the feed was provided to the rats and the food intake at 1 hour, 2 hours, 4 hours and 6 hours was measured. The food intake by the rats treated with test compound was compared with the vehicle treated group by using Unpaired Student's t test.

| Ki (Histamine H3 receptor) [nM] | AUC(0-t) ([1]; intravenous, 1 mg/kg) [ng·h/mL] | Cmax ([1]; intravenous, 1 mg/kg) [ng/mL] | Tmax ([1]; intravenous, 1 mg/kg) [min] | half-life ([1]; intravenous, 1 mg/kg) [min] | bioavailability [1] [%] | AUC(0-t) ([1]; per oral, 3 mg/kg) [ng·h/mL] | Cmax ([1]; per oral, 3 mg/kg) [ng/mL] | Tmax ([1]; per oral, 3 mg/kg) [min] | half-life ([1]; per oral, 3 mg/kg) [min] | Kp [2] | SMILES | Inference (Male Wister rats; 3 mg/kg p.o.) | Exploration time mean ± S.E.M, Familiar object (Male Wister rats; 3 mg/kg p.o.) [s] | Exploration time mean ± S.E.M, Novel object (Male Wister rats; 3 mg/kg p.o.) [s] | Reversal of Scopolamine Induced amnesia (rats [3]) | further results |
| --- | --- | --- | --- | --- | --- | --- | --- | --- | --- | --- | --- | --- | --- | --- | --- | --- |
| 39 | 282 ± 23 | 370 ± 25 | 4.8 | 40.2 ± 3.6 | 82 ± 38 | 701 ± 328 | 286 ± 40 | 49.8 ± 17.4 | 57 ± 16.8 |  | O=C(C1CCOCC1)N1CCc2nc(OC3CCN(C4CCC4)CC3)sc2C1 [Example 28, [2-(1-Cyclobutyl-piperidin-4-yloxy)-6,7-dihydro-4H-thiazolo[5,4-c]pyridin-5-yl]-(tetrahydro-pyran-4-yl)-methanone] |  |  |  | ≧10 mg/kg, p.o. | Inference (Male Wister rats; 0.3 mg/kg p.o.): Active; Exploration time mean ± S.E.M, Familiar object (Male Wister rats; 0.3 mg/kg p.o.): 6.12 ± 1.22 s; Exploration time mean ± S.E.M, Novel object (Male Wister rats; 0.3 mg/kg p.o.): 11.44 ± 1.69 s |
| 9.5 | 110 ± 15 | 205 ± 47 | 4.8 | 30 ± 3 | 65 ± 24 | 206 ± 56 | 189 ± 56 | 25.2 ± 8.4 | 32.4 ± 6.6 | 2.1 ± 0.13 | CC(C)C(=O)N1CCc2nc(OC3CCN(C4CCC4)CC3)sc2C1.O=C(O)C(O)C(O)C(=O)O [Example 22, 1-[2-(1-Cyclobutyl-piperidin-4-yloxy)-6,7-dihydro-4H-thiazolo[5,4-c]pyridin-5-yl]-2-methyl-propan-1-one tartrate] |  |  |  |  |  |

Continued, molecule first:

| SMILES | Ki (Histamine H3 receptor) [nM] | AUC(0-t) ([1]; intravenous, 1 mg/kg) [ng·h/mL] | Cmax ([1]; intravenous, 1 mg/kg) [ng/mL] | Tmax ([1]; intravenous, 1 mg/kg) [min] | half-life ([1]; intravenous, 1 mg/kg) [min] | bioavailability [1] [%] | AUC(0-t) ([1]; per oral, 3 mg/kg) [ng·h/mL] | Cmax ([1]; per oral, 3 mg/kg) [ng/mL] | Tmax ([1]; per oral, 3 mg/kg) [min] | half-life ([1]; per oral, 3 mg/kg) [min] | Kp [2] | Inference (Male Wister rats; 3 mg/kg p.o.) | Exploration time mean ± S.E.M, Familiar object (Male Wister rats; 3 mg/kg p.o.) [s] | Exploration time mean ± S.E.M, Novel object (Male Wister rats; 3 mg/kg p.o.) [s] | Reversal of Scopolamine Induced amnesia (rats [3]) | further results |
| --- | --- | --- | --- | --- | --- | --- | --- | --- | --- | --- | --- | --- | --- | --- | --- | --- |
| CCC(=O)N1CCc2nc(OC3CCN(C4CCC4)CC3)sc2C1.O=C(O)C(O)C(O)C(=O)O [Example 1, 1-[2-(1-Cyclobutyl-piperidin-4-yloxy)-6,7-dihydro-4H-thiazolo[5,4-c]pyridin-5-yl]-propan-1-one tartrate] | 3.83 | 356 ± 61 | 436 ± 118 | 4.8 | 58.8 ± 7.8 | 49 ± 5 | 524 ± 51 | 329 ± 23 | 25.2 ± 8.4 | 57 ± 4.2 | 1.97 ± 0.24 | Active | 7.8 ± 1.80 | 23.95 ± 3.15 | ≦10 mg/kg, p.o. |  |
| O=C(C1CC1)N1CCc2nc(OC3CCN(C4CCC4)CC3)sc2C1.O=C(O)C(O)C(O)C(=O)O [Example 4, [2-(1-Cyclobutyl-piperidin-4-yloxy)-6,7-dihydro-4H-thiazolo[5,4-c]pyridin-5-yl]-cyclopropyl-methanone tartrate] | 7.2 | 348 ± 7 | 320 ± 62 | 4.8 | 75 ± 6.6 | 39 ± 8 | 407 ± 89 | 199 ± 48 | 40.2 ± 17.4 | 100 ± 12.6 | 2.17 ± 0.17 |  |  |  | ≦10 mg/kg, p.o. | Inference (Male Wister rats; 10 mg/kg p.o.): Active; Exploration time mean ± S.E.M, Familiar object (Male Wister rats; 10 mg/kg p.o.): 7.8 ± 1.36 s; Exploration time mean ± S.E.M, Novel object (Male Wister rats; 10 mg/kg p.o.): 20.32 ± 2.22 s; Inhibition of food intake (rats [4]): 20 mg/kg, p.o. |
| O=C(CN1CCOCC1)N1CCc2nc(OC3CCN(C4CCC4)CC3)sc2C1.O=C(O)C(O)C(O)C(=O)O [Example 12, 1-[2-(1-Cyclobutyl-piperidin-4-yloxy)-6,7-dihydro-4H-thiazolo[5,4-c]pyridin-5-yl]-2-morpholin-4-yl-ethanone tartrate] | 8.44 | 334 ± 39 | 237 ± 38 | 4.8 | 172 ± 49.2 | 43 ± 17 | 417 ± 120 | 151 ± 18 | 49.8 ± 17.4 | 171 ± 22.8 |  |  |  |  | ≧20 mg/kg, p.o. |  |
| O=C(C1CCC1)N1CCc2nc(OC3CCN(C4CCC4)CC3)sc2C1.O=C(O)C(O)C(O)C(=O)O [Example 5, Cyclobutyl-[2-(1-cyclobutyl-piperidin-4-yloxy)-6,7-dihydro-4H-thiazolo[5,4-c]pyridin-5-yl]-methanone tartrate] | 3.3 | 155 ± 38 | 287 ± 58 | 4.8 | 25.8 ± 6 | 25 ± 1 | 117 ± 34 | 101 ± 37 | 25.2 ± 8.4 | 34.2 ± 6 | 3.08 ± 0.45 | Active | 7.15 ± 0.91 | 11.44 ± 1.58 | ≦3 mg/kg, p.o. |  |
